Assays:
E. coli [1] = experiment: E. coli challenged by silver surfactants in commercial alkyd paint; type: cell-based, Escherichia coli; conditions: alkyd resin paint coating, 24 h contact time; note: key: A minus sign (−) denotes no growth; a plus sign (+) denotes confluent growth; a capital P (P) denotes particle growth
E. coli [2] = experiment: E. coli challenged by silver surfactants in commercial acrylic paint; type: cell-based, Escherichia coli; conditions: 24 h contact time; for surviving bacteria (growth): commercial solvent borne acrylate paint coating; for surviving bacteria (growth): key: A minus sign (−) denotes no growth; a plus sign (+) denotes confluent growth; a capital P (P) denotes particle growth
S. aureus = S. aureus challenged by silver surfactants in laboratory acrylic clearcoat; type: cell-based, Staphylococcus aureus; conditions: laboratory solvent borne acrylate clearcoat, 24 h contact time; note: key: A minus sign (−) denotes no growth; a plus sign (+) denotes confluent growth; a capital P (P) denotes particle growth
E. coli [3] = experiment: E. coli challenged by silver surfactants in laboratory acrylic paint; type: cell-based, Escherichia coli; conditions: 24 h contact time; for surviving bacteria (growth): laboratory solvent borne acrylate paint coating; for surviving bacteria (growth): key: A minus sign (−) denotes no growth; a plus sign (+) denotes confluent growth; a capital P (P) denotes particle growth
E. coli [4] = experiment: E. coli challenged by silver surfactants in commercial 2K epoxy paint; type: cell-based, Escherichia coli; conditions: 24 h contact time; for surviving bacteria (growth): commercial 2K epoxy paint coating
Staphylococcus aureus = experiment: Growth on agar plates containing sodium surfactant; type: cell-based; conditions: agar plates with sodium surfactant, replicates 1-2 or 1-3; note: test concentration or dose not given here
Bacillus subtilis = experiment: Growth on agar plates containing sodium surfactant; type: cell-based; conditions: agar plates with sodium surfactant, replicates 1-2 or 1-3; note: test concentration or dose not given here
Streptococcus viridans = experiment: Growth on agar plates containing sodium surfactant; type: cell-based; conditions: agar plates with sodium surfactant; strain EM8; replicates 1-2 or 1-3
Streptococcus bovis = experiment: Growth on agar plates containing sodium surfactant; type: cell-based; conditions: agar plates with sodium surfactant; strain EM12; replicates 1-2 or 1-3
Enterococcus fecalis = experiment: Growth on agar plates containing sodium surfactant; type: cell-based; conditions: agar plates with sodium surfactant, replicates 1-2 or 1-3; note: test concentration or dose not given here
[5] = system: Staphylococcus epidermidis; experiment: Growth on agar plates containing sodium surfactant; type: cell-based; conditions: agar plates with sodium surfactant; strain EM3/ATCC12228; replicates 1-2 or 1-3
Streptococcus pyogenes = experiment: Growth on agar plates containing sodium surfactant; type: cell-based; conditions: agar plates with sodium surfactant; strain EM14; replicates 1-2 or 1-3
Streptococcus agalactiae = experiment: Growth on agar plates containing sodium surfactant; type: cell-based; conditions: agar plates with sodium surfactant; strain EM13; replicates 1-2 or 1-3; note: test concentration or dose not given here
Micrococcus luteus = experiment: Growth on agar plates containing sodium surfactant; type: cell-based; conditions: agar plates with sodium surfactant; strain EM17; replicates 1-2 or 1-3

Compound: CCCCCCCCCCCCOS(=O)(=O)[O-].[Ag+] [AgDS, Silver dodecylsufate]
- surviving bacteria (growth) (E. coli [1]; 0.0012 weight % Ag in coating): +
- surviving bacteria (growth) (E. coli [1]; 0.003 weight % Ag in coating): +
- surviving bacteria (growth) (E. coli [1]; 0.006 weight % Ag in coating): +
- surviving bacteria (growth) (E. coli [1]; 0.012 weight % Ag in coating): +
- surviving bacteria (growth) (E. coli [1]; 0.03 weight % Ag in coating): −
- surviving bacteria (growth) (E. coli [1]; 0.06 weight % Ag in coating): −
- surviving bacteria (growth) (E. coli [1]; 0.12 weight % Ag in coating): −
- silver level effective at preventing any growth (E. coli [2]; commercial acrylic paint): 0.03 % w/w
- surviving bacteria (growth) (E. coli [2]; 0.0012 weight % Ag in coating): +
- surviving bacteria (growth) (E. coli [2]; 0.003 weight % Ag in coating): +
- surviving bacteria (growth) (E. coli [2]; 0.006 weight % Ag in coating): +
- surviving bacteria (growth) (E. coli [2]; 0.012 weight % Ag in coating): +
- surviving bacteria (growth) (E. coli [2]; 0.03 weight % Ag in coating): −
- surviving bacteria (growth) (E. coli [2]; 0.06 weight % Ag in coating): −
- surviving bacteria (growth) (E. coli [2]; 0.12 weight % Ag in coating): −
- surviving bacteria (growth) (S. aureus; 0.0012 weight % Ag in coating): −
- surviving bacteria (growth) (S. aureus; 0.003 weight % Ag in coating): −
- surviving bacteria (growth) (S. aureus; 0.006 weight % Ag in coating): −
- surviving bacteria (growth) (S. aureus; 0.012 weight % Ag in coating): −
- surviving bacteria (growth) (S. aureus; 0.03 weight % Ag in coating): −
- surviving bacteria (growth) (S. aureus; 0.06 weight % Ag in coating): −
- surviving bacteria (growth) (S. aureus; 0.12 weight % Ag in coating): −
- silver level effective at preventing any growth (E. coli [3]; laboratory acrylic paint): 0.03 % w/w
- silver level with partial inhibition (only partial growth) (E. coli [3]; laboratory acrylic paint): 0.012%
- surviving bacteria (growth) (E. coli [3]; 0.0012 weight % Ag in coating): +
- surviving bacteria (growth) (E. coli [3]; 0.003 weight % Ag in coating): +
- surviving bacteria (growth) (E. coli [3]; 0.006 weight % Ag in coating): +
- surviving bacteria (growth) (E. coli [3]; 0.03 weight % Ag in coating): −
- surviving bacteria (growth) (E. coli [3]; 0.06 weight % Ag in coating): −
- surviving bacteria (growth) (E. coli [3]; 0.12 weight % Ag in coating): −
- surviving bacteria (growth) (E. coli [4]; 0.0012 weight % Ag in coating): +
- surviving bacteria (growth) (E. coli [4]; 0.003 weight % Ag in coating): +
- surviving bacteria (growth) (E. coli [4]; 0.006 weight % Ag in coating): +
- surviving bacteria (growth) (E. coli [4]; 0.03 weight % Ag in coating): −
- surviving bacteria (growth) (E. coli [4]; 0.06 weight % Ag in coating): −
- surviving bacteria (growth) (E. coli [4]; 0.12 weight % Ag in coating): −
- silver level giving complete inhibition of growth (E. coli [4]; commercial 2K epoxy paint): 0.03 % w/w
- silver level partially effective (E. coli [4]; commercial 2K epoxy paint): 0.012 % w/w

Compound: CCCCC(CC)COC(=O)CC(C(=O)OCC(CC)CCCC)S(=O)(=O)[O-].[Na+] (centres unmarked) [Compound S1]
- Survival: No Growth/Full Growth (Staphylococcus aureus; strain ATCC6538): −
- Survival: No Growth/Full Growth (Staphylococcus aureus; strain EM24/ATCC25923): −
- Survival: No Growth/Full Growth (Bacillus subtilis; strain ATCC33): −
- Survival: No Growth/Full Growth (Bacillus subtilis; strain EM27): −
- Survival: No Growth/Full Growth (Streptococcus viridans): −
- Survival: No Growth/Full Growth (Streptococcus bovis): −
- Survival: No Growth/Full Growth (Enterococcus fecalis; strain EM19, first line): −
- Survival: No Growth/Full Growth (Enterococcus fecalis; strain EM19, second line): −
- Survival: No Growth/Full Growth [5]: −
- Survival: No Growth/Full Growth (Streptococcus pyogenes): −
- Survival: No Growth/Full Growth (Streptococcus agalactiae): −
- Survival: No Growth/Full Growth (Micrococcus luteus): −

Compound: CCCCC(CC)COP(=O)([O-])OCCC(CC)CCC.[Na+] (centres unmarked) [Compound S2]
- Survival: No Growth/Full Growth (Staphylococcus aureus; strain ATCC6538): −
- Survival: No Growth/Full Growth (Staphylococcus aureus; strain EM24/ATCC25923): −
- Survival: No Growth/Full Growth (Bacillus subtilis; strain ATCC33): −
- Survival: No Growth/Full Growth (Bacillus subtilis; strain EM27): −
- Survival: No Growth/Full Growth (Streptococcus viridans): −
- Survival: No Growth/Full Growth (Streptococcus bovis): −
- Survival: No Growth/Full Growth (Enterococcus fecalis; strain EM19, first line): −
- Survival: No Growth/Full Growth (Enterococcus fecalis; strain EM19, second line): −
- Survival: No Growth/Full Growth [5]: −
- Survival: No Growth/Full Growth (Streptococcus pyogenes): −
- Survival: No Growth/Full Growth (Streptococcus agalactiae): −
- Survival: No Growth/Full Growth (Micrococcus luteus): −

Compound: CC(C)CC(C)OC(=O)CC(C(=O)OC(C)CC(C)C)S(=O)(=O)[O-].[Na+] (centres unmarked) [Compound S4]
- Survival: No Growth/Full Growth (Staphylococcus aureus; strain ATCC6538): −
- Survival: No Growth/Full Growth (Staphylococcus aureus; strain EM24/ATCC25923): −
- Survival: No Growth/Full Growth (Bacillus subtilis; strain ATCC33): −
- Survival: No Growth/Full Growth (Bacillus subtilis; strain EM27): −
- Survival: No Growth/Full Growth (Streptococcus viridans): +
- Survival: No Growth/Full Growth (Streptococcus bovis): −
- Survival: No Growth/Full Growth (Enterococcus fecalis; strain EM19, first line): −
- Survival: No Growth/Full Growth (Enterococcus fecalis; strain EM19, second line): +
- Survival: No Growth/Full Growth [5]: −
- Survival: No Growth/Full Growth (Streptococcus pyogenes): −
- Survival: No Growth/Full Growth (Streptococcus agalactiae): −
- Survival: No Growth/Full Growth (Micrococcus luteus): −
